In patent US8476265B2, “Compounds-801” (AstraZeneca AB, priority 2010, dated 2013):

Columns and labels:
[1] = target: T1, Adrenergic β2 (Homo sapiens, UniProt P07550); experiment: Adrenergic β2 mediated cAMP production in H292 cells, single concentration 1 μM; format: cell-based; conditions: NCI-H292, 1 μM compound, cAMP as percentage of the maximum response generated by 1E-07M formoterol, read-out: β2 % effect @1 uM
T1 construct: Adherent H292 cells are removed from tissue culture flasks by treatment with Accutase™ cell detachment solution; endogenous in cells; host or cells: H292 cells
Method: The following experimental procedure was used to measure the beta-2% effect at 1 μM for the compounds of Examples 99-175. Adrenergic p2 Mediated cAMP Production Cell Preparation
H292 cells are grown in 225 cm2 flasks incubator at 37° C., 5% CO2 in RPMI medium containing 10% (v/v) FBS (foetal bovine serum) and 2 mM L-glutamine.
Compounds are prepared by an initial first dilution into DMSO to give 1 mM stock concentration. This is followed by a 1 in 10 dilution of the stock concentration (10 μl stock compound +90 μl DMSO) to give 0.1 mM compound. A compound addition plate is prepared by making a further 1 in 25 dilution in assay buffer (HBSS solution containing 10 mM HEPES pH7.4 and 5 mM glucose) containing 4% dimethylsulfoxide. The final compound concentration in assay is 1 μM.
Adherent H292 cells are removed from tissue culture flasks by treatment with Accutase™ cell detachment solution for 15 minutes. Flasks are incubated for 15 minutes in a humidified incubator at 37° C., 5% CO2. Detached cells are re-suspended in RPMI media (containing 10% (v/v) FBS and 2 mM L-glutamine) at 0.1×10^6 cells per mL. 10000 cells in 100 μL are added to each well of a tissue-culture-treated 96-well plate and the cells incubated overnight in a humidified incubator at 37° C., 5% CO2. The culture media is removed and cells are washed twice with 100 μL assay buffer and replaced with 50 μL assay buffer (HBSS solution containing 10 mM HEPES pH7.4 and 5 mM glucose). Cells are rested at room temperature for 20 minutes after which time 25 μL of rolipram (1.2 mM made up in assay buffer) is added. Cells are incubated with rolipram for 10 minutes after which time 25 μl test compounds are added and the cells are incubated for 60 minutes at room temperature. The final rolipram concentration in the assay is 300 μM and final vehicle concentration is 1% (v/v) dimethylsulphoxide. The reaction is stopped by removing supernatants, washing once with 100 μL assay buffer and replacing with 50 μL lysis buffer. The cell monolayer is frozen at −80° C. for 30 minutes (or overnight).
AlphaScreen™ cAMP Detection
The concentration of cAMP (cyclic adenosine monophosphate) in the cell lysate is determined using AlphaScreen™ methodology. The frozen cell plate is thawed for 20 minutes on a plate shaker then 10 μL of the cell lysate is transferred to a 96-well white plate. 40 μl of mixed AlphaScreen™ detection beads (containing equal volumes of donor beads (pre-incubated with biotinylated cAMP in the dark for 30 minutes) and acceptor beads is added to each well and the plate incubated at room temperature for 3 hours in the dark. The AlphaScreen™ signal is measured using an EnVision spectrophotometer (Perkin-Elmer Inc.) with the recommended manufacturer's settings. Concentration of cAMP produced per well were calculated with reference to the cAMP standard curve determined in the same experiment and expressed as a percentage of the maximum response generated by 1E-07M formoterol.

[2] = target: T2, human muscarinic acetylcholine M3 receptor (Homo sapiens, UniProt P20309); experiment: Muscarinic 3 receptor binding assay ([3H]NMS competition, SPA), single concentration 1 μM; conditions: 1 μM compound; % inhibition specific [3H]-NMS binding
T2 construct: expressed in transfected cells; host or cells: CHO-K1 (Chinese Hamster Ovary) cell membranes
Method: The following experimental procedure was used to determine the M3% inhibition at 1 μM of the compounds of Examples 99-175
Muscarinic 3 Receptor Binding Assay
The activity (% inhibition specific binding) of compounds on the M3 receptor is determined by competition binding of [^3H]N-methyl scopolamine (NMS) to CHO-K1 (Chinese Hamster Ovary) cell membranes expressing the human muscarinic acetylcholine M3 receptor (M3-ACh) in a scintillation proximity assay (SPA) format. SPA beads are precoated with membranes and then incubated at 2 mg of beads per well with 1 μM compound of the invention, [^3H]NMS at 0.1 nM, quarter Kd (experimentally determined dissociation constant) and assay buffer (20 mM HEPES pH 7.4 containing 5 mM MgCl2 and 0.1% (w/v) bovine serum albumin). The assay is conducted in a final volume of 200 μL, in the presence of 1% (v/v) dimethyl sulphoxide (DMSO). Total binding of [^3H]NMS is determined in the absence of competing compound and non-specific binding of [^3H]NMS is determined in the presence of 1 μM atropine. The plates are incubated for 16 hours at room temperature and then read on Wallac Microbeta™ using a normalised ^3H protocol. The compound activity at 1 μM, defined as % inhibition specific [^3H]-NMS binding, is determined.

T1 sequence (P07550 whole entry): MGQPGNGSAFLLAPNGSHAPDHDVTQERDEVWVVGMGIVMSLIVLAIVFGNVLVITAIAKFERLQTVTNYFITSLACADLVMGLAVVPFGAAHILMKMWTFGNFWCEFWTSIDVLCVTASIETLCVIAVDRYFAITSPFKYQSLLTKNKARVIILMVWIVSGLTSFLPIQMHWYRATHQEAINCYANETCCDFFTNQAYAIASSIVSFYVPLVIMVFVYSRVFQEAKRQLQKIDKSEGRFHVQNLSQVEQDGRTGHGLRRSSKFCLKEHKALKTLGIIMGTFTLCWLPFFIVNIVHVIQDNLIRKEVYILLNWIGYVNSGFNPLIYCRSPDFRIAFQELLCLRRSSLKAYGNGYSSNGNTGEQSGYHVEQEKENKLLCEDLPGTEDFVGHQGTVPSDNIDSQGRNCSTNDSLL
T2 sequence (P20309 whole entry): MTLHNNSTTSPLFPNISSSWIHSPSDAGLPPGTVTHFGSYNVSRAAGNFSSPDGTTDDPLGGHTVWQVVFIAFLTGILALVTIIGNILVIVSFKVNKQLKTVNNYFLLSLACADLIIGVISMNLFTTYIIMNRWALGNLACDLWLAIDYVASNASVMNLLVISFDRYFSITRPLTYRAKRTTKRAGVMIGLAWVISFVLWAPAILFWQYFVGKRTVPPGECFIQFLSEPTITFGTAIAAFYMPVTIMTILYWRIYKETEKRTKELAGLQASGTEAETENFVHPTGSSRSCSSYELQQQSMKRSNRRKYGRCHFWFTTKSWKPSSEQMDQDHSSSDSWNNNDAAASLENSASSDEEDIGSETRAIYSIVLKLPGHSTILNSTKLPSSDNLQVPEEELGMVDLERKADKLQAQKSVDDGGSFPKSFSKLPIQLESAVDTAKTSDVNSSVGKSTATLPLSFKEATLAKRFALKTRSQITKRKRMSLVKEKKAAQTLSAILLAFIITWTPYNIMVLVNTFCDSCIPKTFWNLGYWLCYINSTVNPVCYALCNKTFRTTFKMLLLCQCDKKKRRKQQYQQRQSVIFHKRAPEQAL

SMILES	percent of formoterol maximum response at 1 µM [1] [%]	inhibition at 1 µM [2] [%]
CC(C)C[C@H](O)C(=O)N1CCOC2(CCN(Cc3cccc(CCOCCC(=O)N(CCNCCc4ccc(O)c5c4OCC(=O)N5)C4CCCCC4)c3)CC2)C1 [Example 137, (S)-N-Cyclohexyl-N-(2-(2-(5-hydroxy-3-oxo-3,4-dihydro-2H-benzo[b][1,4]oxazin-8-yl)ethylamino)ethyl)-3-(3-((4-(2-hydroxy-4-methylpentanoyl)-1-oxa-4,9-diazaspiro[5.5]undecan-9-yl)methyl)phenethoxy)propanamide]	88	100
O=C1COc2c(CCNCCN(C(=O)CCOCCc3cccc(CN4CCC5(CC4)CN(C(=O)c4cc6cc(F)ccc6[nH]4)CCO5)c3)C3CCCCC3)ccc(O)c2N1 [Example 107, N-Cyclohexyl-3-(3-((4-(5-fluoro-1H-indole-2-carbonyl)-1-oxa-4,9-diazaspiro[5.5]undecan-9-yl)methyl)phenethoxy)-N-(2-(2-(5-hydroxy-3-oxo-3,4-dihydro-2H-benzo[b][1,4]oxazin-8-yl)ethylamino)ethyl)propanamide]	101	100
O=C1COc2c(CCNCCN(C(=O)CCOCCc3cccc(CN4CCC5(CC4)CN(C(=O)[C@H](O)c4cccc(Cl)c4)CCO5)c3)C3CCCCC3)ccc(O)c2N1 [Example 130, (R)-3-(3-((4-(2-(3-Chlorophenyl)-2-hydroxyacetyl)-1-oxa-4,9-diazaspiro[5.5]undecan-9-yl)methyl)phenethoxy)-N-cyclohexyl-N-(2-(2-(5-hydroxy-3-oxo-3,4-dihydro-2H-benzo[b][1,4]oxazin-8-yl)ethylamino)ethyl)propanamide]	114	99
CCOc1ccccc1CC(=O)N1CCOC2(CCN(Cc3cccc(CCOCCC(=O)N(CCNCCc4ccc(O)c5c4OCC(=O)N5)C4CCCCC4)c3)CC2)C1 [Example 170, N-Cyclohexyl-3-(3-((4-(2-(2-ethoxyphenyl)acetyl)-1-oxa-4,9-diazaspiro[5.5]undecan-9-yl)methyl)phenethoxy)-N-(2-(2-(5-hydroxy-3-oxo-3,4-dihydro-2H-benzo[b][1,4]oxazin-8-yl)ethylamino)ethyl)propanamide]	112	98
O=C1COc2c(CCNCCN(C(=O)CCOCCc3cccc(CN4CCC5(CC4)CN(C(=O)c4ccc(-n6cccn6)cc4)CCO5)c3)C3CCCCC3)ccc(O)c2N1 [Example 122, 3-(3-((4-(4-(1H-Pyrazol-1-yl)benzoyl)-1-oxa-4,9-diazaspiro[5.5]undecan-9-yl)methyl)phenethoxy)-N-cyclohexyl-N-(2-(2-(5-hydroxy-3-oxo-3,4-dihydro-2H-benzo[b][1,4]oxazin-8-yl)ethylamino)ethyl)propanamide]	87	84
COC1CCCC(C(=O)N2CCOC3(CCN(Cc4cccc(CCOCCC(=O)N(CCNCCc5ccc(O)c6c5OCC(=O)N6)C5CCCCC5)c4)CC3)C2)C1 (centres unmarked) [Example 114, N-Cyclohexyl-N-(2-(2-(5-hydroxy-3-oxo-3,4-dihydro-2H-benzo[b][1,4]oxazin-8-yl)ethylamino)ethyl)-3-(3-((4-(3-methoxycyclohexanecarbonyl)-1-oxa-4,9-diazaspiro[5.5]undecan-9-yl)methyl)phenethoxy)propanamide]	106	100
COCCOc1ccc(C(=O)N2CCOC3(CCN(Cc4cccc(CCOCCC(=O)N(CCNCCc5ccc(O)c6c5OCC(=O)N6)C5CCCCC5)c4)CC3)C2)cc1 [Example 173, N-Cyclohexyl-N-(2-(2-(5-hydroxy-3-oxo-3,4-dihydro-2H-benzo[b][1,4]oxazin-8-yl)ethylamino)ethyl)-3-(3-((4-(4-(2-methoxyethoxy)benzoyl)-1-oxa-4,9-diazaspiro[5.5]undecan-9-yl)methyl)phenethoxy)propanamide]	82	95
O=C1COc2c(CCNCCN(C(=O)CCOCCc3cccc(CN4CCC5(CC4)CN(C(=O)CC46CC7CC(CC(O)(C7)C4)C6)CCO5)c3)C3CCCCC3)ccc(O)c2N1 [Example 116, N-Cyclohexyl-3-[2-[3-[[10-[2-(3-hydroxy-1-adamantyl)acetyl]-7-oxa-3,10-diazaspiro[5.5]undecan-3-yl]methyl]phenyl]ethoxy]-N-[2-[2-(5-hydroxy-3-oxo-4H-1,4-benzoxazin-8-yl)ethylamino]ethyl]propanamide]	80	94
O=C1COc2c(CCNCCN(C(=O)CCOCCc3cccc(CN4CCC5(CC4)CN(C(=O)c4ccc(-n6ccnc6)cc4)CCO5)c3)C3CCCCC3)ccc(O)c2N1 [Example 135, 3-(3-((4-(4-(1H-Imidazol-1-yl)benzoyl)-1-oxa-4,9-diazaspiro[5.5]undecan-9-yl)methyl)phenethoxy)-N-cyclohexyl-N-(2-(2-(5-hydroxy-3-oxo-3,4-dihydro-2H-benzo[b][1,4]oxazin-8-yl)ethylamino)ethyl)propanamide]	86	66

Now from value to compound:

percent of formoterol maximum response at 1 µM [1] [%]	inhibition at 1 µM [2] [%]	SMILES
84	88	O=C1COc2c(CCNCCN(C(=O)CCOCCc3cccc(CN4CCC5(CC4)CN(C(=O)c4cnccc4C(F)(F)F)CCO5)c3)C3CCCCC3)ccc(O)c2N1 [Example 121, N-Cyclohexyl-N-(2-(2-(5-hydroxy-3-oxo-3,4-dihydro-2H-benzo[b][1,4]oxazin-8-yl)ethylamino)ethyl)-3-(3-((4-(4-(trifluoromethyl)nicotinoyl)-1-oxa-4,9-diazaspiro[5.5]undecan-9-yl)methyl)phenethoxy)propanamide]
97	96	Cc1ncc(Br)cc1C(=O)N1CCOC2(CCN(Cc3cccc(CCOCCC(=O)N(CCNCCc4ccc(O)c5c4OCC(=O)N5)C4CCCCC4)c3)CC2)C1 [Example 118, 3-(3-((4-(5-Bromo-2-methylnicotinoyl)-1-oxa-4,9-diazaspiro[5.5]undecan-9-yl)methyl)phenethoxy)-N-cyclohexyl-N-(2-(2-(5-hydroxy-3-oxo-3,4-dihydro-2H-benzo[b][1,4]oxazin-8-yl)ethylamino)ethyl)propanamide]
109	99	O=C1COc2c(CCNCCN(C(=O)CCOCCc3cccc(CN4CCC5(CC4)CN(C(=O)C4CC=CCC4)CCO5)c3)C3CCCCC3)ccc(O)c2N1 (centres unmarked) [Example 105, 3-(3-((4-(Cyclohex-3-enecarbonyl)-1-oxa-4,9-diazaspiro[5.5]undecan-9-yl)methyl)phenethoxy)-N-cyclohexyl-N-(2-(2-(5-hydroxy-3-oxo-3,4-dihydro-2H-benzo[b][1,4]oxazin-8-yl)ethylamino)ethyl)propanamide]
93	99	CC(C)(C)C(=O)N1CCOC2(CCN(Cc3cccc(CCOCCC(=O)N(CCNCCc4ccc(O)c5c4OCC(=O)N5)C4CCCCC4)c3)CC2)C1 [Example 155, N-Cyclohexyl-N-(2-(2-(5-hydroxy-3-oxo-3,4-dihydro-2H-benzo[b][1,4]oxazin-8-yl)ethylamino)ethyl)-3-(3-((4-pivaloyl-1-oxa-4,9-diazaspiro[5.5]undecan-9-yl)methyl)phenethoxy)propanamide]
